What was measured:
Format in all cases: biochemical
[1] = target: dihydroxyacid dehydratase (DHAD) (Streptococcus mutans serotype c, UniProt Q8DRT7); test: Inhibition of DHAD conversion of DHIV to 2-KIV by DHMB, colorimetric assay; conditions: read-out: inhibition constants (Ki) for DHAD
Procedure: 101: 999-1004 (1993). The assay took place in a 2 mL Eppendorf tube placed in a heating block maintained at 30° C. […] The assay was initiated by adding a 10× concentrated stock of substrate. Samples were removed (0.35 mL) at times 0.1 and 30 minutes, and the reaction was stopped by mixing into 0.35 mL 0.1 N HCl with 0.05% 2,4-dinitrophenylhydrazine (Aldrich) in a second Eppendorf tube. After incubating 30 minutes at room temperature, 0.35 mL of 4N NaOH was added to the mixture, mixed, and centrifuged at 15,000×G for 2 minutes in a centrifuge (Beckman-Coulter Microfuge 18). The absorbance of the solution at 540 nm was then measured in a 1 cm pathlength cuvette using a Cary 300 Bio UV-Vis spectrophometer (Varian). Based on a standard curve using authentic 2-KIV (Fluka), 1 OD absorbance at 540 nm is produced by 0.28 mM 2-KIV. […] Both forms of DHMB behaved liked competitive inhibitors of DHIV. […] The fast and slow isomers of DHMB had calculated inhibition constants of 7 mM and 5 mM, respectively.

[2] = target: K9D3 (derivative of Anaerostipes caccae KARI) (Anaerostipes caccae, UniProt B0MCX7, S56A/S58D); test: Inhibition of purified KARI by DHMB, spectrophotometric NADPH oxidation assay; conditions: competitive vs. acetolactate, 30° C., pH 6.8, NADPH 0.2 mM, read-out: KI Values for KARI Inhibition by DHMB Isomers
Chain of K9D3 (derivative of Anaerostipes caccae KARI) (B0MCX7 1-343, stated change not applied): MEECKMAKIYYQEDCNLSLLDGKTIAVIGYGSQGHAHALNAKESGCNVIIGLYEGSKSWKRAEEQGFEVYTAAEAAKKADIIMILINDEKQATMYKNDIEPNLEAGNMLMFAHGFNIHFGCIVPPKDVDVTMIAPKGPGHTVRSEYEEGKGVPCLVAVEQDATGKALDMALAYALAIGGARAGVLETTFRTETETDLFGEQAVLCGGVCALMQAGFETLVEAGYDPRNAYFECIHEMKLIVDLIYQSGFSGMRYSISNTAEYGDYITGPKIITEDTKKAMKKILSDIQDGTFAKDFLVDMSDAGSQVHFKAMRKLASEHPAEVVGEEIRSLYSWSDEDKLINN
Procedure: (§1) The buffer was 0.1 M K^+ Hepes, pH 6.8, containing 10 mM MgCl2 and 1 mM EDTA. NADPH was present at 0.2 mM, and racemic acetolactate was present at either 3 mM or 0.725 mM (S) isomer. The rate of NADPH oxidation in the presence and absence of either fast or slow DHMB was measured. Vmax for each sample was calculated from the observed rate and the known acetolactate Km using the Michaelis-Menten equation. A volumetric Ki was estimated for each measurement in the presence of DHMB using the Michaelis-Menten equation as modified for competitive inhibition vs. acetolactate (the Km term in the MM equation is multiplied by (1+[I]/Ki), and the equation is solved for Ki. The results were converted to mM upon completion of the NMR experiment and are shown in Table 5.

[3] = target: JEA1 (derivative of Pseudomonas fluorescens KARI) (Pseudomonas fluorescens, UniProt Q4K608); test: as above; conditions: competitive vs. acetolactate, 30° C., pH 6.8, NADPH 0.2 mM, read-out: KI Values for KARI Inhibition by DHMB Isomers
Chain of JEA1 (derivative of Pseudomonas fluorescens KARI) (Q4K608 whole entry): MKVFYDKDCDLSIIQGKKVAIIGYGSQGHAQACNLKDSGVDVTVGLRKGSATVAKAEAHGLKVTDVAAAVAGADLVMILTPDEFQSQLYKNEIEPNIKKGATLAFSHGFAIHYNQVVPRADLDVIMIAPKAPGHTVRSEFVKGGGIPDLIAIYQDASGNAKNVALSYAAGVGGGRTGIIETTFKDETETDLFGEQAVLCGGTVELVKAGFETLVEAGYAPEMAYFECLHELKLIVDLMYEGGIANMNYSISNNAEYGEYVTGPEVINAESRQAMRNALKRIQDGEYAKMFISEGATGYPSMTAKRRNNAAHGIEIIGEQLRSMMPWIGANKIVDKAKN
Procedure: as §1

Chain of dihydroxyacid dehydratase (DHAD) (Q8DRT7 whole entry): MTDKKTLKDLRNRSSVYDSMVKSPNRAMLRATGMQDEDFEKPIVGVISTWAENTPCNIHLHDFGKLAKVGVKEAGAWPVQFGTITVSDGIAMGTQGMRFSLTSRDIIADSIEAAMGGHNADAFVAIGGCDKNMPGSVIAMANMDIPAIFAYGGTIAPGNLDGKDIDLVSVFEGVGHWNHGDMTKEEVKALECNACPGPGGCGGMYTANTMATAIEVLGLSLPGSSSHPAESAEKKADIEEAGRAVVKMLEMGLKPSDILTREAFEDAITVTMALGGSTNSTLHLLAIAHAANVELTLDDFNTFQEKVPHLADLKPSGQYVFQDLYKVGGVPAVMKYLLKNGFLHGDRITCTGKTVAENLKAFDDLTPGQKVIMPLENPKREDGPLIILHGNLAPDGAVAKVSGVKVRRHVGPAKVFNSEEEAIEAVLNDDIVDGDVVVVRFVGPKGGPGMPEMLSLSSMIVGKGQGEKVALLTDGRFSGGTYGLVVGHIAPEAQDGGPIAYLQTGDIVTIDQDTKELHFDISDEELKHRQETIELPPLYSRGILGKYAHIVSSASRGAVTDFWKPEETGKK

| SMILES | Ki [1] [mM] | Ki [2] [µM] | Ki [3] [µM] |
| --- | --- | --- | --- |
| C[C@H](O)[C@](C)(O)C(=O)O [Fast DHMB, 2,3-dihydroxy-2-methyl butyrate] | 7 | 300 | 230 |
| C[C@@H](O)[C@](C)(O)C(=O)O [Slow DHMB, 2,3-dihydroxy-2-methyl butyrate] | 5 | 200 | 230 |
